Data set [1] deals with 5-hydroxytryptamine receptor 2A (Homo sapiens, UniProt P28223). Put plainly: Antagonist activity at 5HTR2A (unknown origin) assessed as inhibition of 5-HTR2A.
A further data set addresses hERG (KCNH2) (Homo sapiens, UniProt Q12809). Kind of data set: Inhibition of hERG at 10 uM relative to control. Format: toxicity. For orientation: hERG is a cardiac potassium channel; its block is linked to QT prolongation.

Drawing on ChEMBL document CHEMBL6096690, “Synthesis and Biological Evaluation of Peripheral HTR2A Antagonists for Colorectal Cancer” (J Med Chem, 2025), this text covers IC50 and inhibition for seven compounds.

5-hydroxytryptamine receptor 2A, sequence (P28223 whole entry): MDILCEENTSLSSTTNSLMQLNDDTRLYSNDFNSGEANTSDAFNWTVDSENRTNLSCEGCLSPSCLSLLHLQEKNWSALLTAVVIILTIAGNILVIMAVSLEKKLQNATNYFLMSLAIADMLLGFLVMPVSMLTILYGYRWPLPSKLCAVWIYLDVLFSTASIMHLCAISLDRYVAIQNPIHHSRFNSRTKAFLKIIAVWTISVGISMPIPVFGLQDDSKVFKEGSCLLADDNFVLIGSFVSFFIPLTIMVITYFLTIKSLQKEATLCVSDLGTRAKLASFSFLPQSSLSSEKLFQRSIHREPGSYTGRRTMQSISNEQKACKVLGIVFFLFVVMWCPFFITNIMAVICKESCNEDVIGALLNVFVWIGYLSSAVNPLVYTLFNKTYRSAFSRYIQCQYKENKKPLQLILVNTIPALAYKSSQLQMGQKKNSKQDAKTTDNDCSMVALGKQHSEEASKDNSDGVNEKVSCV
hERG (KCNH2), sequence (Q12809 whole entry): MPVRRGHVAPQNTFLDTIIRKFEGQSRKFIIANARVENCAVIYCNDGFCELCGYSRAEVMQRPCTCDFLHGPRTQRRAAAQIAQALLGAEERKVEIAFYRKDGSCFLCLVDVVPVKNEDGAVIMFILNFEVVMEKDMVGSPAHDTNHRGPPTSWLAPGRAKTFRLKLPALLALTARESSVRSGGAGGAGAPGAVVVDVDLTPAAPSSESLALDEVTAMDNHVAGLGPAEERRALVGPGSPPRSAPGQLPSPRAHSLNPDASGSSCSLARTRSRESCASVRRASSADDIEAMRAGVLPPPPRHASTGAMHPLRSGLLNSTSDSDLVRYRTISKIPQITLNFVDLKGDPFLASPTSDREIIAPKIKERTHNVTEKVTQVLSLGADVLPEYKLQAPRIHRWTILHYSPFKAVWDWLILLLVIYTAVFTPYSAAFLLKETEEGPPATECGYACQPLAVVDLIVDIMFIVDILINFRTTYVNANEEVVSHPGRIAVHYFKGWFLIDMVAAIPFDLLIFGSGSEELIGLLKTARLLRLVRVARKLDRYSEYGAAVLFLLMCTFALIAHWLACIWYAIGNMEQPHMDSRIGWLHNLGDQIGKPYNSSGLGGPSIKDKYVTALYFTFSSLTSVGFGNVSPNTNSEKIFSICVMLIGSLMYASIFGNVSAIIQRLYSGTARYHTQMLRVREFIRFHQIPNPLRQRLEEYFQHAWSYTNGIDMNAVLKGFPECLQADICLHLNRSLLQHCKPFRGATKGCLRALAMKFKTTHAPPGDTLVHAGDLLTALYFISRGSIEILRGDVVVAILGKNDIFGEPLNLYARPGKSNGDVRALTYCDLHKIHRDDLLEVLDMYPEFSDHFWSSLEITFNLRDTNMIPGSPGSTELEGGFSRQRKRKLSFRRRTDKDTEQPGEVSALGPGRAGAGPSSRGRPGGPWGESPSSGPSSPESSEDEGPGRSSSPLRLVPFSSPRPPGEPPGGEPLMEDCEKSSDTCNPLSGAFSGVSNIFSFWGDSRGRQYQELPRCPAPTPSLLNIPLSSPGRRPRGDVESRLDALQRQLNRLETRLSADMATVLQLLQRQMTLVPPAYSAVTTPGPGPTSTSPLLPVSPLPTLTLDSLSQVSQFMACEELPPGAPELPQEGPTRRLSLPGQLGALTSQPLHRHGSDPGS

By IC50 is commonly meant the concentration needed to halve the response being measured. For `O=C(NCc1ccc(OCC(O)CN2CCC(C3c4ccc(Cl)cc4CCc4cccnc43)CC2)cc1)N(Cc1ccc(F)cc1)C1CCNCC1` (stereo not given), the half-maximal inhibitory concentration (IC50) in data set [1] is 820 nM.
As a reminder, the inhibition is the percentage by which the read-out fell short of the control. On hERG (KCNH2), `O=C(NCc1ccc(OCC(O)CN2CCN(c3noc4cc(F)ccc34)CC2)cc1)N(Cc1cc(F)c(F)cc1F)C1CCNCC1` (stereo not given) returned an inhibition at 10 µM of 72.9%. Moreover, in data set [1], the IC50 was 49.5 nM.
In the case of `O=C(c1ccc(F)cc1)C1CCN(CC(O)COc2ccc(CNC(=O)N(Cc3ccc(F)cc3)C3CCNCC3)cc2)CC1` (stereo not given), the IC50 in data set [1] was 667 nM.
At hERG (KCNH2), `O=C(NCc1ccc(OCC(O)CN2CCN(c3noc4cc(F)ccc34)CC2)cc1)N(Cc1ccc(F)cc1F)C1CCNCC1` (stereo not given) registered an inhibition at 10 µM of 87.7%. For the same compound, the IC50 in data set [1] amounted to 46.5 nM.
Consider `O=C(NCc1ccc(OCC(O)CN2CCN(c3cccc(Cl)c3Cl)CC2)cc1)N(Cc1ccc(F)cc1)C1CCNCC1` (stereo not given), for which, in data set [1], the IC50 is 91.8 nM.
Still for that read-out and setting: as for `O=C(NCc1ccc(OCC(O)CN2CCN(c3nsc4ccccc34)CC2)cc1)N(Cc1ccc(F)cc1)C1CCNCC1` (stereo not given), the figure is 54.2 nM.
In the case of `O=C(NCc1ccc(OCC(O)CN2CCN(c3noc4cc(F)ccc34)CC2)cc1)N(Cc1c(F)cc(F)cc1F)C1CCNCC1` (stereo not given), the inhibition at 10 µM at hERG (KCNH2) came out at 83.6%. In addition, the IC50 in data set [1] amounted to 36.4 nM.
